From ChEMBL document CHEMBL1201862, “PubChem BioAssay data set” (2004)
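Method: 48-hour compound exposure of cells in 96-well plates, five concentrations, linear interpolation of endpoints. Here, GI50 denotes the concentration required for 50% inhibition of growth.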 Activity calls are given as the source filed them. No stated cut-off is given here; in the data, active = GI50 up to about 1.1 µM and inactive = higher.

How the values were obtained:
Experiment in all cases: growth of human tumour cells (NCI), 48 h
EKVX = test system: EKVX
OVCAR-5 = test system: OVCAR-5
NCI-H23 = test system: NCI-H23
SNB-19 = test system: SNB-19
A498 = test system: A498
M19-MEL = test system: M19-MEL
786-0 = test system: 786-0
UO-31 = test system: UO-31
OVCAR-8 = test system: OVCAR-8
CCRF-CEM = test system: CCRF-CEM
IGROV-1 = test system: IGROV-1
HCT-116 = test system: HCT-116
MOLT-4 = test system: MOLT-4
SW-620 = test system: SW-620
MCF7 = test system: MCF7
NCI/ADR-RES = test system: NCI/ADR-RES
Hs-578T = test system: Hs-578T
PC-3 = test system: PC-3
DU-145 = test system: DU-145

Structure (SMILES)	GI50 (EKVX)	GI50 (OVCAR-5)	GI50 (NCI-H23)	GI50 (SNB-19)	GI50 (A498)	GI50 (M19-MEL)	GI50 (786-0)	GI50 (UO-31)	GI50 (OVCAR-8)	GI50 (CCRF-CEM)	GI50 (IGROV-1)	GI50 (HCT-116)	GI50 (MOLT-4)	GI50 (SW-620)	GI50 (MCF7)	GI50 (NCI/ADR-RES)	GI50 (Hs-578T)	GI50 (PC-3)	GI50 (DU-145)
CC(=O)ON(C(C)=O)C1C(COC(c2ccccc2)(c2ccccc2)c2ccccc2)OC2OC3(CCCC3)OC21 (stereo not drawn)	16.9 µM (inactive)	> 100 µM (inactive)	4.24 µM (inactive)	5.38 µM (inactive)	25.9 µM (inactive)	6.62 µM (inactive)	30.9 µM (inactive)	5.36 µM (inactive)	5.13 µM (inactive)	4.13 µM (inactive)	> 100 µM (inactive)	5.45 µM (inactive)	3.15 µM (inactive)	8.63 µM (inactive)					
CCOC(=O)Oc1cc2c(c(OC)c1OC)-c1ccc(OC)c(=O)cc1C(NC(C)=O)CC2 (stereo not drawn)	19.1 µM (inactive)	2.26 µM (inactive)	0.0187 µM (active)	0.0277 µM (active)	0.0541 µM (active)	< 0.0164 µM (active)	0.0345 µM (active)	5.35 µM (inactive)	0.0286 µM (active)	< 0.0122 µM (active)	0.0208 µM (active)	0.0149 µM (active)	0.0179 µM (active)	< 0.0122 µM (active)	< 0.01 µM (active)	9.33 µM (inactive)	0.0619 µM (active)	0.0278 µM (active)	0.1 µM (active)
